In brackets after ≈: the same amount, converted by molar mass.

This is an account of results in patent publication US8865734B2 (priority 2010, dated 2014).

Assay [1] has as its system M. tuberculosis inside the host macrophage. Briefly: QIM: Quantification of Intracellular Mycobacteria (intracellular growth assay, phenotypic cell-based). The following applies: MIC, 80% bacterial growth inhibition, intracellular growth; for MIC: Mycobacterium tuberculosis, read-out: QIM. The method, boiled down:
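Dose-response testing of intracellular mycobacterial replication in infected macrophages, a cell-based screening format; MIC is defined as the lowest concentration achieving 80% inhibition of bacterial growth.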

Assay [2] has as its system in vitro grown Mycobacteria (M. tuberculosis). Briefly: QUM: Quantification of in vitro grown Mycobacteria (in vitro growth fluorescence assay). The assay is classed as cell-based. The note with it: MIC, 80% bacterial growth inhibition, in vitro growth; for MIC: Mycobacterium tuberculosis, read-out: QUM. Summed up:
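Mycobacterium tuberculosis grown in vitro was quantified by fluorescence across compound dose responses. MIC is defined as the minimum concentration producing 80% growth inhibition.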

As to `CCc1nc2ccc(Cl)cn2c1C(=O)NCc1ccc(-c2ccccc2C(F)(F)F)cc1` [Compound 123, 6-Chloro-2-ethyl-N-((2′-(trifluoromethyl)biphenyl-4-yl)methyl)imidazo[1,2-a]pyridine-3-carboxamide], the MIC in assay [1] was under 1 µM; in assay [2] it was 1 to 20 µM (≈ 0.458 to 9.16 µg/mL).

As to `CCc1nc2cc(Cl)ccn2c1C(=O)NCc1ccn(-c2ccc(OC(F)(F)F)cc2)n1` [Compound 232, 7-Chloro-2-ethyl-N-((1-(4-(trifluoromethoxy)phenyl)-1H-pyrazol-3-yl)methyl) imidazo[1,2-a]pyridine-3-carboxamide], the “QIM (μM)” value in assay [1] was “++ (++ indicates between 1-20 uM)”. In assay [2], the “QUM (μM)” value is “++ (++ indicates between 1-20 uM)”.

As for `CCc1nc2ccc(Cl)cn2c1C(=O)NCc1ccc(N2CCC(COC(C)C)CC2)cc1` [Compound 291, 6-Chloro-2-ethyl-N-(4-(4-(isopropoxymethyl)piperidin-1-yl)benzyl)imidazo[1,2-a]pyridine-3-carboxamide], the MIC in assay [1] and in assay [2] was under 1 µM in each case.

Regarding `CCc1nc2cc(Cl)ccn2c1NC(=O)Cc1ccc(-c2ccccc2)cc1` [Compound 143, 2-(Biphenyl-4-yl)-N-(7-chloro-2-ethylimidazo[1,2-a]pyridin-3-yl)acetamide], the MIC in assay [1] is under 1 µM; in assay [2], 1 to 20 µM (≈ 0.39 to 7.8 µg/mL).

As to `CCc1nc2cc([N+](=O)[O-])ccn2c1C(=O)NCc1ccc(OC(F)(F)F)cc1` [Compound 150, 2-Ethyl-7-nitro-N-(4-(trifluoromethoxy)benzyl)imidazo[1,2-a]pyridine-3-carboxamide], the MIC in assay [1] and in assay [2] was over 20 µM each time.

Take `Cc1nc2c(O)cccn2c1C(=O)NCc1ccccc1` [Compound 43, N-Benzyl-8-hydroxy-2-methylimidazo[1,2-a]pyridine-3-carboxamide]: the MIC in assay [1] and in assay [2] was over 20 µM in each case.

For `CCc1nc2cc(Cl)ccn2c1C(=O)NCc1ccc(-c2ccc(C(C)(C)C)cc2)cc1` [Compound 117, N-((4′-tert-Butylbiphenyl-4-yl)methyl)-7-chloro-2-ethylimidazo[1,2-a]pyridine-3-carboxamide], the MIC in assay [1] and in assay [2] was under 1 µM in each case.

`CC(C)(C)c1ccc(CNC(=O)c2c(C(F)(F)F)nc3ccc(Cl)cn23)cc1` [Compound 100, N-(4-tert-Butylbenzyl)-6-chloro-2-(trifluoromethyl)imidazo[1,2-a]pyridine-3-carboxamide]: the MIC in assay [1] and in assay [2] was under 1 µM throughout.

Regarding `CCc1nc2cc(Cl)ccn2c1C(=O)NCc1ccc(N2CCC(Oc3ccc(Cl)cc3)CC2)cc1` [Compound 163, 7-Chloro-N-(4-(4-(4-chlorophenoxy)piperidin-1-yl)benzyl)-2-ethylimidazo[1,2-a]pyridine-3-carboxamide], the MIC in assay [1] and in assay [2] was under 1 µM in each case.

On to `Cc1nc2ccccn2c1C(=O)NCc1ccc(-c2ccccc2)cc1` [Compound 16, N-(Biphenyl-4-ylmethyl)-2-methylimidazo[1,2-a]pyridine-3-carboxamide], for which the MIC in assay [1] and in assay [2] was under 1 µM each time.

In the case of `Cc1nc2ccccn2c1C(=O)NCC1CCN(C(=O)OC(C)(C)C)CC1` [Compound 19, tert-Butyl 4-((2-methylimidazo[1,2-a]pyridine-3-carboxamido)methyl)piperidine-1-carboxylate], the MIC in assay [1] and in assay [2] was over 20 µM in each case.

Regarding `CCc1nc2cc(Cl)ccn2c1NC(=O)c1ccc(-c2ccccc2)cc1` [Compound 142, N-(7-Chloro-2-ethylimidazo[1,2-a]pyridin-3-yl)biphenyl-4-carboxamide], the MIC in assay [1] and in assay [2] was over 20 µM in each case.

Regarding `CCc1nc2ccc(Cl)cn2c1C(=O)N(C)Cc1ccc(Oc2ccc(F)cc2)cc1` [Compound 197, 6-Chloro-2-ethyl-N-(4-(4-fluorophenoxy)benzyl)-N-methylimidazo[1,2-a]pyridine-3-carboxamide], the MIC in assay [1] and in assay [2] was 1 to 20 µM (≈ 0.438 to 8.76 µg/mL) in each case.

For the compound `CCc1nc2ccc(Cl)cn2c1C(=O)NCc1ccc(Cl)cc1` [Compound 70, 6-Chloro-N-(4-chlorobenzyl)-2-ethylimidazo[1,2-a]pyridine-3-carboxamide], the MIC in assay [1] and in assay [2] was under 1 µM in each case.

For the compound `CCc1nc2ccc(C)cn2c1C(=O)NCc1ccc(C(C)(C)C)cc1` [Compound 64, N-(4-tert-Butylbenzyl)-2-ethyl-6-methylimidazo[1,2-a]pyridine-3-carboxamide], the MIC in assay [1] and in assay [2] was under 1 µM in each case.

For `CCc1nc2ccc(Cl)cn2c1C(=O)NCc1ccc2oc(-c3ccc(OC(F)(F)F)cc3)nc2c1` [Compound 207, 6-Chloro-2-ethyl-N-((2-(4-(trifluoromethoxy)phenyl)benzo[d]oxazol-5-yl)methyl)imidazo[1,2-a]pyridine-3-carboxamide], the MIC in assay [1] and in assay [2] was under 1 µM in each case.

In the case of `Cc1nc2ccccn2c1C(=O)NCCOCc1ccccc1` [Compound 24, N-(2-(Benzyloxy)ethyl)-2-methylimidazo[1,2-a]pyridine-3-carboxamide], the MIC in assay [1] and in assay [2] was over 20 µM each time.

On to `CCc1nc2cc(Cl)ccn2c1C(=O)NCc1ccc(-c2ccc(C#N)cc2C)cc1` [Compound 132, 7-Chloro-N-((4′-cyano-2′-methylbiphenyl-4-yl)methyl)-2-ethylimidazo[1,2-a]pyridine-3-carboxamide], for which the MIC in assay [1] and in assay [2] was under 1 µM each time.

`Cc1nc2c(F)cccn2c1C(=O)NCc1ccccc1` [Compound 39, N-Benzyl-8-fluoro-2-methylimidazo[1,2-a]pyridine-3-carboxamide]: the MIC in assay [1] and in assay [2] was 1 to 20 µM (≈ 0.283 to 5.67 µg/mL) in each case.

Regarding `Cc1nc2ccccn2c1C(=O)NCc1cccnc1` [Compound 13, 2-Methyl-N-(pyridin-3-ylmethyl)imidazo[1,2-a]pyridine-3-carboxamide], the MIC in assay [1] and in assay [2] was over 20 µM each time.

Turning to `Cc1nc2c(Cl)cccn2c1C(=O)NCc1ccccc1` [Compound 27, N-Benzyl-8-chloro-2-methylimidazo[1,2-a]pyridine-3-carboxamide], the MIC in assay [1] and in assay [2] was over 20 µM in each case.

Regarding `CCc1nc2cc(Cl)ccn2c1C(=O)NCc1ccc(-c2ccc(OC)cc2)cc1` [Compound 118, 7-Chloro-2-ethyl-N-((4′-methoxybiphenyl-4-yl)methyl)imidazo[1,2-a]pyridine-3-carboxamide], the MIC in assay [1] and in assay [2] was under 1 µM in each case.

On to `CCc1nc2cc(Cl)ccn2c1C(=O)NCc1ccc(Br)cc1` [Compound 101, N-(4-Bromobenzyl)-7-chloro-2-ethylimidazo[1,2-a]pyridine-3-carboxamide], for which the MIC in assay [1] is under 1 µM; in assay [2] it was 1 to 20 µM (≈ 0.393 to 7.85 µg/mL).

For `CCc1nc2cc(Cl)ccn2c1C(=O)NCc1ccc(N2CC=CCC2)cc1` [Compound 213, 7-Chloro-N-(4-(5,6-dihydropyridin-1(2H)-yl)benzyl)-2-ethylimidazo[1,2-a]pyridine-3-carboxamide], the MIC is 1 to 20 µM (≈ 0.395 to 7.9 µg/mL) in assay [1] and under 1 µM in assay [2].

Consider `O=C(NCc1ccccc1)c1c(C2CC2)nc2ccccn12` [Compound 50, N-Benzyl-2-cyclopropylimidazo[1,2-a]pyridine-3-carboxamide], for which the MIC in assay [1] and in assay [2] was 1 to 20 µM (≈ 0.291 to 5.83 µg/mL) throughout.
